Experimental data taken from ChEMBL document CHEMBL5528035, “Design, Synthesis, and Biological Evaluation for First GPX4 and CDK Dual Inhibitors” (J Med Chem, 2024).
Active and inactive are the calls of the source. No cut-off for these calls is given here.

Experiments:
[1] = Cmax in Sprague-Dawley rat at 10 mg/kg,iv administration measured upto 24 hrs by LC-MS/MS analysis; assay type: ADME, organism-based; settings: in vivo
[2] = test system: A549; assay: cells; settings: Homo sapiens, A549, 48 h
Description: Antiproliferative activity against human A549 cells assessed as inhibition of cell growth incubated for 48 hrs by CCK-8 assay

[3] = Clearance in Sprague-Dawley rat at 10 mg/kg,iv administration measured upto 24 hrs by LC-MS/MS analysis; assay type: ADME, organism-based; settings: in vivo
[4] = test system: MDA-MB-231; assay: cells; settings: Homo sapiens, MDA-MB-231, 48 h
Description: Antiproliferative activity against human MDA-MB-231 cells assessed as inhibition of cell growth incubated for 48 hrs by CCK-8 assay

[5] = test system: HepG2; assay: cells; settings: Homo sapiens, HepG2, 48 h
Description: Antiproliferative activity against human HepG2 cells assessed as inhibition of cell growth incubated for 48 hrs by CCK-8 assay

[6] = AUC (0 to t) in Sprague-Dawley rat at 10 mg/kg,iv administration measured upto 24 hrs by LC-MS/MS analysis; assay type: ADME, organism-based; settings: in vivo
[7] = test system: MDA-MB-231; assay: Antitumor activity against human MDA-MB-231 cells xenografted in BALB/c mouse assessed as tumor growth inhibition at 40 mg/kg,ip administrated for 21 consecutive days; assay type: functional; settings: read-out: TGI
[8] = Intrinsic clearance in human liver microsomes in presence of NADPH incubated for 5 to 45 mins by LC/MS analysis; assay type: ADME, Microsome; settings: time 5-45 min, read-out: CLH
[9] = Tmax in Sprague-Dawley rat at 10 mg/kg,iv administration measured upto 24 hrs by LC-MS/MS analysis; assay type: ADME, organism-based; settings: in vivo
[10] = test system: HCT-116; assay: cells; settings: Homo sapiens, HCT-116, 48 h
Description: Antiproliferative activity against human HCT-116 cells assessed as inhibition of cell growth incubated for 48 hrs by CCK-8 assay

[11] = Half life in human liver microsomes in presence of NADPH incubated for 5 to 45 mins by LC/MS analysis; assay type: ADME, Microsome; settings: time 5-45 min
[12] = MRT (0 to t) in Sprague-Dawley rat at 10 mg/kg,iv administration measured upto 24 hrs by LC-MS/MS analysis; assay type: ADME, organism-based; settings: in vivo
[13] = Half life in Sprague-Dawley rat at 10 mg/kg,iv administration measured upto 24 hrs by LC-MS/MS analysis; assay type: ADME, organism-based; settings: in vivo
[14] = biological target: CDK6/cyclin D3 (Homo sapiens) (UniProt P30281+Q00534); assay: Inhibition of CDK6/CyclinD3 (unknown origin) at 100 nM preincubated for 15 mins followed by substrate and ATP addition incubated for 10 mins by ADP-glo luminescent assay relative to control; assay type: protein-complex assay; settings: time 25.0 min
[15] = test system: HCT-116; assay: Induction of cell cycle arrest in human HCT-116 cells assessed as accumulation of cells at G2 phase at 10 uM incubated for 24 hrs by RNase/PI staining based flow cytometric analysis; assay type: functional
[16] = test system: MDA-MB-231; assay: Induction of cell cycle arrest in human MDA-MB-231 cells assessed as accumulation of cells at G1 phase at 10 uM incubated for 24 hrs by RNase/PI staining based flow cytometric analysis; assay type: functional
[17] = test system: HCT-116; assay: Induction of cell cycle arrest in human HCT-116 cells assessed as accumulation of cells at G1 phase at 10 uM incubated for 24 hrs by RNase/PI staining based flow cytometric analysis; assay type: functional
[18] = test system: MDA-MB-231; assay: Induction of cell cycle arrest in human MDA-MB-231 cells assessed as accumulation of cells at G2 phase at 10 uM incubated for 24 hrs by RNase/PI staining based flow cytometric analysis; assay type: functional
[19] = biological target: CDK2/Cyclin A2 (Homo sapiens) (UniProt P24941+P20248); assay: Inhibition of CDK2/CyclinA2 (unknown origin) at 100 nM preincubated for 15 mins followed by substrate and ATP addition incubated for 10 mins by ADP-glo luminescent assay relative to control; assay type: protein-complex assay; settings: time 25.0 min

| SMILES | Cmax [1] [ng/mL] | IC50 [2] [µM] | clearance [3] [mL/min/kg] | IC50 [4] [µM] | IC50 [5] [µM] | AUC(0-t) at 24 h [6] [ng·h/mL] | CLint scaled [8] [mL/min/kg] | Tmax [9] [min] | IC50 [10] [µM] | half-life [11] [min] | MRT last at 24 h [12] [h] | half-life [13] [min] | inhibition [14] [%] | inhibition [19] [%] | inhibition in vivo at 40 mg/kg [7] [%] | Activity [15] | Activity [16] | Activity [17] | Activity [18] |
| --- | --- | --- | --- | --- | --- | --- | --- | --- | --- | --- | --- | --- | --- | --- | --- | --- | --- | --- | --- |
| O=C(CCn1cc(COc2ccc(N(C(=O)CCl)C(C(=O)NCCc3ccccc3)c3cccs3)cc2Cl)nn1)O/N=C1/C(=C2/C(=O)Nc3ccccc32)Nc2ccccc21 (stereo not drawn) | – | 7.72 | – | 7.89 | 8.18 | – | – | – | 7.45 | – | – | – | 46.3 | 8.89 | – | – | – | – | – |
| O=C(CCn1cc(COc2ccc(N(C(=O)CCl)C(C(=O)NCCc3ccccc3)c3cccs3)cc2Cl)nn1)O/N=C1/C(=C2/C(=O)Nc3ccccc32)Nc2ccc(Br)cc21 (stereo not drawn) | – | > 10 | – | > 10 | > 10 | – | – | – | > 10 | – | – | – | 34.9 | 13.3 | – | – | – | – | – |
| O=C(CCn1cc(COc2ccc(N(C(=O)CCl)C(C(=O)NCCc3ccccc3)c3cccs3)cc2Cl)nn1)NCCCO/N=C1/C(=C2/C(=O)Nc3cc(F)c(F)cc32)Nc2ccccc21 (stereo not drawn) | – | 8.32 | – | > 10 | > 10 | – | – | – | 9.63 | – | – | – | 16.1 | 1.12 | – | – | – | – | – |
| O=C(CCn1cc(COc2ccc(N(C(=O)CCl)C(C(=O)NCCc3ccccc3)c3cccs3)cc2Cl)nn1)NCCCO/N=C1/C(=C2/C(=O)Nc3ccc(Br)cc32)Nc2ccccc21 (stereo not drawn) | – | > 10 | – | > 10 | > 10 | – | – | – | 8.77 | – | – | – | 21.3 | 15.5 | – | – | – | – | – |
| O=C(CCn1cc(COc2ccc(N(C(=O)CCl)C(C(=O)NCCc3ccccc3)c3cccs3)cc2Cl)nn1)O/N=C1/C(=C2/C(=O)Nc3ccccc32)Nc2cc(Cl)c(Cl)cc21 (stereo not drawn) | – | > 10 | – | > 10 | > 10 | – | – | – | > 10 | – | – | – | 10.4 | 5.9 | – | – | – | – | – |
| COc1ccc2c(c1)/C(=C1/Nc3ccccc3/C1=N\OCCCNC(=O)CCn1cc(COc3ccc(N(C(=O)CCl)C(C(=O)NCCc4ccccc4)c4cccs4)cc3Cl)nn1)C(=O)N2 (stereo not drawn) | – | 4.09 | – | 2.01 | 4.66 | – | – | – | 1.96 | – | – | – | 40 | 26.6 | – | – | – | – | – |
| O=C(CCn1cc(COc2ccc(N(C(=O)CCl)C(C(=O)NCCc3ccccc3)c3cccs3)cc2Cl)nn1)O/N=C1/C(=C2/C(=O)Nc3ccccc32)Nc2cc(Cl)ccc21 (stereo not drawn) | – | 6.27 | – | 7.78 | 7.51 | – | – | – | 7.32 | – | – | – | 37.1 | 8.53 | – | – | – | – | – |
| O=C(CCn1cc(COc2ccc(N(C(=O)CCl)C(C(=O)NCCc3ccccc3)c3cccs3)cc2Cl)nn1)O/N=C1/C(=C2/C(=O)Nc3ccccc32)Nc2ccc(F)cc21 (stereo not drawn) | – | 6.37 | – | 3.24 | 5.58 | – | – | – | 4.25 | – | – | – | 21.4 | 19.6 | – | – | – | – | – |

The next lines start with results.

| Cmax [1] [ng/mL] | IC50 [2] [µM] | clearance [3] [mL/min/kg] | IC50 [4] [µM] | IC50 [5] [µM] | AUC(0-t) at 24 h [6] [ng·h/mL] | CLint scaled [8] [mL/min/kg] | Tmax [9] [min] | IC50 [10] [µM] | half-life [11] [min] | MRT last at 24 h [12] [h] | half-life [13] [min] | inhibition [14] [%] | inhibition [19] [%] | SMILES | inhibition in vivo at 40 mg/kg [7] [%] | Activity [15] | Activity [16] | Activity [17] | Activity [18] |
| --- | --- | --- | --- | --- | --- | --- | --- | --- | --- | --- | --- | --- | --- | --- | --- | --- | --- | --- | --- |
| 8530 | 2.09 | 20.8 | 2.27 | 3.71 | 8020 | 2680 | 48 | 4.14 | 0.6 | 1.8 | 102 | – | – | COc1ccc(N(C(=O)CCl)C(C(=O)NCCc2ccccc2)c2cccs2)cc1Cl (stereo not drawn) | 60.9 | – | – | – | – |
| 8730 | 4.04 | 12.8 | 5.16 | 5.66 | 12900 | 55.2 | 48 | 4.22 | 29 | 2.7 | 228 | 51.1 | 40.3 | O=C1Nc2ccccc2/C1=C1/Nc2ccccc2/C1=N\O | 59.4 | Active | Active | Active | Active |
| – | 1.88 | – | 1.64 | 4.92 | – | – | – | 1.99 | – | – | – | 36.2 | 3.17 | O=C(CCn1cc(COc2ccc(N(C(=O)CCl)C(C(=O)NCCc3ccccc3)c3cccs3)cc2Cl)nn1)NCCCO/N=C1/C(=C2/C(=O)Nc3ccc(F)cc32)Nc2ccccc21 (stereo not drawn) | – | – | – | – | – |
| – | 2.67 | – | 5.65 | 4.83 | – | – | – | 4.25 | – | – | – | 39.4 | 28.1 | O=C(CCn1cc(COc2ccc(N(C(=O)CCl)C(C(=O)NCCc3ccccc3)c3cccs3)cc2Cl)nn1)NCCCO/N=C1/C(=C2/C(=O)Nc3ccc(Cl)cc32)Nc2ccccc21 (stereo not drawn) | – | – | – | – | – |
| – | 2.85 | – | 1.2 | 2.02 | – | – | – | 1.49 | – | – | – | 52.1 | 22.1 | O=C(CCn1cc(COc2ccc(N(C(=O)CCl)C(C(=O)NCCc3ccccc3)c3cccs3)cc2Cl)nn1)NCCCO/N=C1/C(=C2/C(=O)Nc3ccccc32)Nc2ccccc21 (stereo not drawn) | – | – | – | – | – |
